Measurements from PubChem BioAssay (NCI).
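Method: 48-hour compound exposure of cells in 96-well plates, five concentrations, linear interpolation of endpoints. TGI: total growth inhibition.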

What was measured:
Test in all cases: DTP human tumour cell line panel, 48 h
[1] = system: MDA-MB-231 breast
[2] = system: RXF 393 renal
[3] = system: PC-3 prostate
[4] = system: SF-268 CNS
[5] = system: BT-549 breast
[6] = system: OVCAR-3 ovarian
[7] = system: HOP-62 NSCLC
[8] = system: UACC-62 melanoma
[9] = system: ACHN renal
[10] = system: HL-60(TB) leukemia
[11] = system: HOP-92 NSCLC
[12] = system: SF-539 CNS

`Cc1nc2n(c1/C=C1/C(=O)Nc3cccc(Cl)c31)CCS2` was tested, and the TGI [1] was 52.5 µM, the TGI [2] was 50.6 µM and the TGI [3] was over 100 µM. The TGI [4] was 52.1 µM, the TGI [5] was 98.7 µM and the TGI [6] was over 100 µM. The TGI [7] was 74.1 µM, the TGI [8] was over 100 µM and the TGI [9] was over 100 µM. For the same compound, the TGI [10] was over 100 µM, the TGI [11] was 66.8 µM and the TGI [12] was 35.2 µM.
